Paper PMC8038316 (International Journal of Molecular Sciences, 2021)

Assays:
[1] = target: T1, cytochrome bc1 complex (complex III; decylubiquinol:Cyt c reductase, EC 1.10.2.2) (Pyricularia grisea, UniProt Q85KP9); assay: biochemical; settings: read-out: % inhibition at 50 μM
T1 construct: gene cytb

[2] = target: T2, succinate dehydrogenase (SDH; succinate:quinone oxidoreductase, SQR, EC 1.3.5.1; complex II) (Pyricularia oryzae, UniProt A0ABQ8NN34+G4N2P5+G4NB04); assay: biochemical
T2 construct: gene SDH2

Row | SMILES | inhibition at 50 µM [1] | inhibition at 400 µM ([2]; read-out: % inhibition at 400 μM) | inhibition at 40 µM ([2]; read-out: % inhibition at 40 μM)
1 | CO/C=C(/C(=O)OC)c1ccccc1COc1cccc(NC(=O)c2ccccc2NC(C)=O)c1 [11b] | 58 ± 18% | ~23% | –
2 | CO/C=C(/C(=O)OC)c1ccccc1Oc1cc(Oc2ccccc2C#N)ncn1 [compound 2, azoxystrobin] | 61 ± 10% | – | –
3 | Cn1cc(C(=O)Nc2ccccc2-c2cc(F)c(F)c(F)c2)c(C(F)F)n1 [compound 6, fluxapyroxad] | – | – | > 90%
